Reference: PMC9218946, “Identification of a Subtype-Selective Allosteric Inhibitor of GluN1/GluN3 NMDA Receptors” (Frontiers in Pharmacology, 2022)

What was measured:
KA receptors = assay: Whole-cell patch-clamp, KA-induced currents in acutely isolated hippocampal neurons; assay type: cell-based, rat; settings: 10 μM WZB117
Protocol: (§1) Hippocampal neurons were obtained from Sprague-Dawley rats (aged P7-14). Briefly, the isolated hippocampal tissues were cut into approximately […] slices along the sagittal plane and were digested with 3 mg/ml proteinase (Sigma-Aldrich) at 32°C for 8 min. Then 1 mg/ml bovine serum albumin (Sangon Biotech) and 1 mg/ml trypsin inhibitor (Sigma-Aldrich) were used to stop the digestion. A few slices of the hippocampus were gently blown into single cells with the dissecting solution, then transferred to a dish and left to rest for 20 min before experiments. The dishes were preprocessed. Essentially, the bottom of the dish was covered with discarded cell suspension the day before the experiment and was washed and dried the next day, which prevented the neurons from sticking to the bottom too tightly. The dissecting solution contained (in mM): 82 Na2SO4, 30 K2SO4, 5 MgCl2, 1 Na pyruvate, 10 HEPES, and 20 glucose. The pH was adjusted to 7.2 using NaOH ([Xie et al., 2020]).
(§2) Whole-cell patch-clamp recordings were performed at room temperature (22–25°C) using an EPC-10 amplifier and Patch Master Software (HEKA). Pipettes were pulled from borosilicate glass capillaries (World Precision Instruments), and the resistances were 3–5 MΩ when filled with the intracellular solution. […]

[1] = target: T1, chimera GluN1/GluN2A^550-553 LEPF/MWPL (Homo sapiens, UniProt Q05586+Q12879, E551W/F553L/L550M); assay: Whole-cell patch-clamp on transiently transfected CHO cells, GluN2A chimera; assay type: cell-based
T1 construct: expressed in transfected cells; host or cells: CHO, transient
T1 sequence (Q12879 23-1464 L550M/E551W/F553L, other chains not shown): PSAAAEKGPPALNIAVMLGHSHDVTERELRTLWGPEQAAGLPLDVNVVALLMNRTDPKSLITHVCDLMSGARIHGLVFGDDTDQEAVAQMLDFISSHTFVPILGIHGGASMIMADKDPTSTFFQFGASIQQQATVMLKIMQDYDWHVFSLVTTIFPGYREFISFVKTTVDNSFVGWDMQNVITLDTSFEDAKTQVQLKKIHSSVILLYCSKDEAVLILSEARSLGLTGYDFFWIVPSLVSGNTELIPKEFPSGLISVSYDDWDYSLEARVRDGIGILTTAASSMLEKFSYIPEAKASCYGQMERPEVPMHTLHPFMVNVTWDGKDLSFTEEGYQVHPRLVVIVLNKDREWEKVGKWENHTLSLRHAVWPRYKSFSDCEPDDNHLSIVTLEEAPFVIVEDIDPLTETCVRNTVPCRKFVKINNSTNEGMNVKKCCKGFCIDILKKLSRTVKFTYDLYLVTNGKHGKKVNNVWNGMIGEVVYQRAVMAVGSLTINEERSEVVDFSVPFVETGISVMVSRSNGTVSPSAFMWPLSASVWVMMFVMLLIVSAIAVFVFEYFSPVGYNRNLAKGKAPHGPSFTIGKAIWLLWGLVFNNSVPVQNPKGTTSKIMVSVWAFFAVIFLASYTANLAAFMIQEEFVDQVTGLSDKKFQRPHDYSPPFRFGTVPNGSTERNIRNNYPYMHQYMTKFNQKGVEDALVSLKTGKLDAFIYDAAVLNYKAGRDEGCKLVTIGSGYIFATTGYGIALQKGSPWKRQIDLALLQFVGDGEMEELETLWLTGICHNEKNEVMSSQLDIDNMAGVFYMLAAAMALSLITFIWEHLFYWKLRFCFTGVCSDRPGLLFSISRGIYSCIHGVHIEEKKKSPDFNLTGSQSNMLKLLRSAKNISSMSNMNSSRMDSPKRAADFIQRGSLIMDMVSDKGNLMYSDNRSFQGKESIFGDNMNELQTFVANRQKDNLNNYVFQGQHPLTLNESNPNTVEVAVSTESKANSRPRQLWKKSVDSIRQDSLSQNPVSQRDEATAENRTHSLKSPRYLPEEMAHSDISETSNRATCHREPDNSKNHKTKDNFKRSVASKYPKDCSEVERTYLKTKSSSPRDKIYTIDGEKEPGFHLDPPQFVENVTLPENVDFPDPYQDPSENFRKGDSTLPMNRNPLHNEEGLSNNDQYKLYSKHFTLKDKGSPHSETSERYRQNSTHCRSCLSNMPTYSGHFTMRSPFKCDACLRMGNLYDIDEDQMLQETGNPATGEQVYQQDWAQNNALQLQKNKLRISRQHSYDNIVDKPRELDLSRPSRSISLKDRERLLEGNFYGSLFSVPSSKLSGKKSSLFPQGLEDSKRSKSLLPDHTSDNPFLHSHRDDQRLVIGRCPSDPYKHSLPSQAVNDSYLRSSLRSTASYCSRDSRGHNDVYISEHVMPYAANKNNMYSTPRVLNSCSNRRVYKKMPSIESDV
Protocol: To establish GluN1/GluN3A stable cell lines, the human GluN1-1a (GenBank: NP_015566.1) and the rat GluN3A (GenBank: NP_612555.1) genes were subcloned into the pcDNA5-FRT-To and pcDNA3.1 vectors, respectively. An EGFP tag was added to the C-terminus of GluN1 or GluN3A using a T2A linker for identification of transfected cells during transient transfection. Point mutations were introduced by site-directed mutagenesis using PrimeSTAR (Takara). The human GluN2A (GenBank: NP_000824.1) gene was subcloned into the pcDNA3.1 vector. The chimeras GluN3A^670-673 MWPL/LEPF and GluN2A^550-553 LEPF/MWPL were generated using In-Fusion HD Cloning kits (Takara). All constructs were confirmed by DNA sequencing (Beijing Genomics Institute).
The Flp-in T-Rex 293 cell lines (Invitrogen), stably expressing GluN1/GluN3A were grown in DMEM basal medium (Gibco) supplemented with 10% fetal bovine serum (FBS, Invitrogen), 15 μg/ml blasticidin S (Invitrogen), 50 μg/ml hygromycin B (Invitrogen) and 500 μg/ml G418 (Gibco). Expression in cell lines was induced with 1 μg/ml doxycycline (Invitrogen) 24–28 h prior to the experiments. Chinese hamster ovary (CHO) cells were grown in DMEM-F12 basal medium (Gibco) supplemented with 10% FBS. In the study on the action sites of WZB117, all whole-cell patch-clamp recordings were performed on CHO cells. […]

GluN1/GluN3A receptors = GluN1/GluN3A receptors (UniProt Q05586+Q9R1M7); assay: TEVC recording in Xenopus oocytes expressing GluN1/GluN3A; assay type: cell-based; design: expressed in transfected cells; host or cells: Xenopus oocytes (cDNA/cRNA injection); settings: 30 μM WZB117, Xenopus oocytes
Sequence of GluN1/GluN3A receptors (Q9R1M7 24-1135, other chains not shown): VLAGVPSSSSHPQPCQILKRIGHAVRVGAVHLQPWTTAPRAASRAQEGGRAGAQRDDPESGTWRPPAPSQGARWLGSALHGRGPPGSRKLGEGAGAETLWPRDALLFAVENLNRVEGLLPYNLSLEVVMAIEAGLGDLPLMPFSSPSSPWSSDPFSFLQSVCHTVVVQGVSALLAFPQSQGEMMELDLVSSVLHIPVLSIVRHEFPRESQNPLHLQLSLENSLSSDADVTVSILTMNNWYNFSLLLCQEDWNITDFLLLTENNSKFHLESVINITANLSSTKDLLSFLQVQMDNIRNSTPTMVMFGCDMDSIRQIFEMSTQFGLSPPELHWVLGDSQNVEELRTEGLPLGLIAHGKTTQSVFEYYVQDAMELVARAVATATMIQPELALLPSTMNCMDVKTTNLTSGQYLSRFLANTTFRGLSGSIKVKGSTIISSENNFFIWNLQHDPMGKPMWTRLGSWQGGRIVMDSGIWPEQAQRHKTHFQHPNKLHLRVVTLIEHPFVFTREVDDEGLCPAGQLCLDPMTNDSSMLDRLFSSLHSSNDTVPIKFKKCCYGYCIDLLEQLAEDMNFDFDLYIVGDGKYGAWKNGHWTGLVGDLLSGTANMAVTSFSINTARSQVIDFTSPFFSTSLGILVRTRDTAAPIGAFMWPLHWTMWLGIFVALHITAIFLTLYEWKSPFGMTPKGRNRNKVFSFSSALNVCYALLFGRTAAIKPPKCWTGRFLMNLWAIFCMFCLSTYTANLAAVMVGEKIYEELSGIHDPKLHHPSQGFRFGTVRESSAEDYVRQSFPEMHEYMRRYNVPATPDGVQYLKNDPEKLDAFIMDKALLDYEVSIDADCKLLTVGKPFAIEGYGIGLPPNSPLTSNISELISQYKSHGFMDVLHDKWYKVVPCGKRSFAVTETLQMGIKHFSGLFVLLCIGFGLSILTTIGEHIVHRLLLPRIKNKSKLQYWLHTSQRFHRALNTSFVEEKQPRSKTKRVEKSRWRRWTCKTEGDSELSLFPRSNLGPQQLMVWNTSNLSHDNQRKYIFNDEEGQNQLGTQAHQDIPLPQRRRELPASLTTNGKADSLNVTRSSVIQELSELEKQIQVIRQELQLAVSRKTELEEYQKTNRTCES
Protocol: Two-electrode voltage-clamp (TEVC) recordings were performed on Xenopus oocytes expressing various subtypes of recombinant NMDARs. Each oocyte was injected with a mixture of 0.5–1.0 ng cDNAs or cRNAs encoding wild-type (WT) or mutant GluN1 (GluN1-1a or GluN1-4a) and GluN2 (2A-2D) or GluN3 (3A-3B) at a ratio of 1:1. The mutant GluN1-4a ^F484A/T518L was injected together with GluN3B to boost the currents of GluN1/GluN3B receptors, and WT GluN1-1a was used unless otherwise stated. The cRNAs of GluN1-4a, GluN3A and GluN3B were transcribed from corresponding DNAs using the mMESSAGE mMACHINE T7 Ultra kit (Life Technologies) according to the manufacturer’s instructions, and the others not specified were cDNAs. TEVC recording was performed 24–72 h post injection in extracellular solution containing (in mM): 100 NaCl, 0.3 BaCl2, 2.5 KCl, 0.01 DTPA and 5 HEPES, and the pH was adjusted to 7.3 using NaOH. All recordings were carried out at a holding potential of −60 mV.

GluN2-containing NMDARs = assay: Whole-cell patch-clamp, NMDA-induced native currents in acutely isolated hippocampal neurons; assay type: cell-based, rat; settings: 10 μM WZB117
Protocol: as §1, §2

O=C(Oc1cccc(F)c1OC(=O)c1cccc(O)c1)c1cccc(O)c1 [WZB117, 3-fluoro-1,2-phenylene bis(3-hydroxybenzoate)]
effect on KA-induced currents (KA receptors): little effect
sensitivity of chimera [1]: acquired higher sensitivity
inhibition of currents (GluN1/GluN3A receptors): potently suppressed
I drug/I control (GluN2-containing NMDARs): 0.73 ± 0.01
